Here are results for one compound from paper PMC7429951 (Journal of Medicinal Chemistry, 2020).

SMILES strings stand for the structures.

One data set has as its target MMP-8 (Homo sapiens, UniProt P22894). As to the kind of experiment: MMP-8 off-target inhibition. The data set is classed as biochemical. The source says:
(§1) Previously, we described N-aryl mercaptoacetamides with high selectivity for the bacterial over a broad range of human MMPs.[29],[30] MMPs are calcium-dependent zinc metalloproteases that play a pivotal role in numerous biochemical processes in humans.[39],[40] Based on the depth of their S1′ binding pocket, MMPs can be divided into three classes: deep (e.g., MMP-3 and -14), intermediate (e.g., MMP-2 and -8), and shallow (e.g., MMP-1 and -7). With the aim to explore the interactions of our inhibitors with all three pocket types, which could help us to assess potential effects on other not-tested representatives, we chose a panel of six MMPs, comprising two members of each class. In addition, HDAC-3, HDAC-8, and TACE (ADAM-17)—enzymes involved in gene expression and the processing of TNF-α,[41],[42] respectively—were selected as important additional human off-targets.

The nature of data set [1]: in vitro. The settings on record: human, HEK293 cells (embryonal kidney).
In data set [2] the target is T1, LasB (Pseudomonas aeruginosa, UniProt Q02RJ6). The settings on record: vs 4-OMe analogue.
The target in another data set is T2, MMP-7 (Homo sapiens, UniProt P09237).
T2 sequence (P09237 95-267): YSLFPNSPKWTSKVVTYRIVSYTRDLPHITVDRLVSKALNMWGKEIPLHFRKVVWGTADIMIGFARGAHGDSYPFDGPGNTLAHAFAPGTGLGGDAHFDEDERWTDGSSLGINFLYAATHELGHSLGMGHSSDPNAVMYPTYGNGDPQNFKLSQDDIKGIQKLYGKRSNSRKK
Briefly: MMP-7 off-target inhibition. To be noted: read-out: MMP-7 % inhibition @ 100 μM; 100 μM compound. The data set is classed as biochemical.
Excerpt: as §1

Data set [3] deals with C. histolyticum strain DSM 1126. Briefly: Bacterial growth inhibition assay (MIC) C. histolyticum. The settings on record: strain DSM 1126, BHI medium, 48 h anaerobic. Format: cell-based, Clostridium histolyticum.
Another data set addresses T3, MMP-2 (Homo sapiens, UniProt P08253).
T3 sequence (P08253 110-660): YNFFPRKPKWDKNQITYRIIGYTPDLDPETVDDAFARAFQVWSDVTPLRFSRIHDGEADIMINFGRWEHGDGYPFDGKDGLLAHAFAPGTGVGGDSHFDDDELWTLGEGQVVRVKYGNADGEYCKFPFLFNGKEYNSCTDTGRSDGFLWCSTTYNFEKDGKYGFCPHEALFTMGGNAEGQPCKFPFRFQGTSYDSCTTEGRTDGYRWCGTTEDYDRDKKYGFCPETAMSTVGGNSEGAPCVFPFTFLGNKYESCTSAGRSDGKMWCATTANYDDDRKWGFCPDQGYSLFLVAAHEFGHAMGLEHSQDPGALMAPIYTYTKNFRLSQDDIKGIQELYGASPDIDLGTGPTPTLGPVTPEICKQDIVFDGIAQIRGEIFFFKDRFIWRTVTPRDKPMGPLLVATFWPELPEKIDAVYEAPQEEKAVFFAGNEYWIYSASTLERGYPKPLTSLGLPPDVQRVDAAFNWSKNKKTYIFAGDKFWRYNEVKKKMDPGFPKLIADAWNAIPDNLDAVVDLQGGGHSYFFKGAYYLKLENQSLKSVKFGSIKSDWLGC
As to the kind of experiment: MMP-2 off-target inhibition. The data set is classed as biochemical.
Excerpt: as §1

The target in data set [4] is peptidase domain of ColH (ColH-PD) (Hathewaya histolytica, UniProt Q46085). Briefly: biochemical. Also on record: species or system Clostridium histolyticum.
Data set [5] addresses T1, LasB. Briefly: biochemical. The settings on record: LasB IC50, FRET-based assay.
Data set [6] addresses peptidase domain of ColT (ColT-PD) (Clostridium tetani, UniProt Q899Y1). As to the kind of experiment: biochemical. To be noted: read-out: ColT-PD % inhibition @ 100 μM. Also on record: species or system C. tetani.
Data set [7] can be described thus: in vitro. The settings on record: human, A549 cells (lung carcinoma).
A further data set deals with MMP-3 (Homo sapiens, UniProt P08254). As to the kind of experiment: MMP-3 off-target inhibition. Format: biochemical. To be noted: read-out: MMP-3 % inhibition @ 100 μM; 100 μM compound.
Excerpt: as §1

The target in the next data set is MMP-14 (Homo sapiens, UniProt P50281). As to the kind of experiment: MMP-14 off-target inhibition. Format: biochemical.
Excerpt: as §1

For the next data set, the target named is T4, HDAC-3 (Homo sapiens, UniProt O15379).
T4 construct: purchased Sigma-Aldrich (Saint Louis, MO)
Briefly: HDAC-3 inhibitor screening kit. Format: biochemical.
Excerpt: as §1

The target of a further data set is T5, HDAC-8 (Homo sapiens, UniProt Q9BY41).
T5 construct: purchased Sigma-Aldrich (Saint Louis, MO)
T5 sequence (Q9BY41 1-377): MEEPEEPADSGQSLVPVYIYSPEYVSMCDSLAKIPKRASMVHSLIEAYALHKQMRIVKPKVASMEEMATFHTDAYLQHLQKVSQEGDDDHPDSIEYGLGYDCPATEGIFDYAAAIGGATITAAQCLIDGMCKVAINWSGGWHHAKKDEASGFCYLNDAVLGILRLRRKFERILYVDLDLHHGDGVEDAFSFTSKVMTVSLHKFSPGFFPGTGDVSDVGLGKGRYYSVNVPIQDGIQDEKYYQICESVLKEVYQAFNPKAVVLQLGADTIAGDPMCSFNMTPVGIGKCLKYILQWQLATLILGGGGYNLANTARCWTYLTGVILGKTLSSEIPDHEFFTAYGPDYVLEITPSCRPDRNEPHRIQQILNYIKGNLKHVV
Briefly: HDAC-8 inhibitor screening kit. The data set is classed as biochemical.
Excerpt: as §1

For another data set, the target named is T6, TACE (ADAM-17) (Homo sapiens, UniProt P78536).
T6 construct: purchased Sigma-Aldrich (Saint Louis, MO)
As to the kind of experiment: TACE inhibitor screening kit. The data set is classed as biochemical.
Excerpt: as §1

Data set [8] can be described thus: in vitro. The settings on record: human, HepG2 cells (hepatocellular carcinoma).

peptidase domain of ColH (ColH-PD), sequence (Q46085 331-721 limits assumed): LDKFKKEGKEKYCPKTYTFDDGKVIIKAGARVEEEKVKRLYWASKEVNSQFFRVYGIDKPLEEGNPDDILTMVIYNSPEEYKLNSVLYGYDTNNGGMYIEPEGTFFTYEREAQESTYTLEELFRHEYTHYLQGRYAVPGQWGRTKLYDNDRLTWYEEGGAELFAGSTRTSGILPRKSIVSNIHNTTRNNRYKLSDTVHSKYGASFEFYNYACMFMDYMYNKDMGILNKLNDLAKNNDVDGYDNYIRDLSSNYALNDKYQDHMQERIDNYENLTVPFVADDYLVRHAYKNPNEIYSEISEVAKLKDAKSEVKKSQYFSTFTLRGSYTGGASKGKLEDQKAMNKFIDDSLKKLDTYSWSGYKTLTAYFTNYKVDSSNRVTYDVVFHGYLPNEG
T1 sequence (Q02RJ6 198-498): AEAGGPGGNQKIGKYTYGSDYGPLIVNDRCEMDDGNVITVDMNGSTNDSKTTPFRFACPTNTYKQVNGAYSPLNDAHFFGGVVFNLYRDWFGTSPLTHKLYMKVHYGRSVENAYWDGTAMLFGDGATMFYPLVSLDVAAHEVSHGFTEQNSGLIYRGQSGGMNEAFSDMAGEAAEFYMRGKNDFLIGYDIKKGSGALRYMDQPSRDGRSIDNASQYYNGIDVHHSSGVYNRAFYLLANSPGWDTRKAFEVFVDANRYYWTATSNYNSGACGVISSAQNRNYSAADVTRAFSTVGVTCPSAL
MMP-8, sequence (P22894 101-467): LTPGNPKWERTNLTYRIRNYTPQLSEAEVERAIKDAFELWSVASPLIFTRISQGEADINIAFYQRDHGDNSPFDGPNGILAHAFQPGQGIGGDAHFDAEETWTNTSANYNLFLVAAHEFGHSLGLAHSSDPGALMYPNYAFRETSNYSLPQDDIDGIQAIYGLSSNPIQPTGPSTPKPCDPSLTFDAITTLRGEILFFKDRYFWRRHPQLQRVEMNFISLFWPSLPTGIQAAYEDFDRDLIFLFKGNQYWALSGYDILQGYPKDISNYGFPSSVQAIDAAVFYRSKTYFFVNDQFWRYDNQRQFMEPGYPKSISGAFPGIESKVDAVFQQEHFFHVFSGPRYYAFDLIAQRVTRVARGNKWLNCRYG
peptidase domain of ColT (ColT-PD), sequence (Q899Y1 340-731 limits assumed): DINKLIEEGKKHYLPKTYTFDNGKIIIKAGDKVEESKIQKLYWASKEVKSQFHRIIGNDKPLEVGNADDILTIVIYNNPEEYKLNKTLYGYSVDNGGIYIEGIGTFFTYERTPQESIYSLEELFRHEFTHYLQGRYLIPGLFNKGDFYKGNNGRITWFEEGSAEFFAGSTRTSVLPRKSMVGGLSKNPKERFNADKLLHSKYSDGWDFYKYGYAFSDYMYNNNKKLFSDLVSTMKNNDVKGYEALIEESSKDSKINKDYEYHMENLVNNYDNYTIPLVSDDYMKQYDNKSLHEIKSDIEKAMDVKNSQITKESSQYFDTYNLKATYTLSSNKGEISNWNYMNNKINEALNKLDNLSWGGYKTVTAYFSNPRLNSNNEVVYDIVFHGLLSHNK
T4 sequence (O15379 whole entry): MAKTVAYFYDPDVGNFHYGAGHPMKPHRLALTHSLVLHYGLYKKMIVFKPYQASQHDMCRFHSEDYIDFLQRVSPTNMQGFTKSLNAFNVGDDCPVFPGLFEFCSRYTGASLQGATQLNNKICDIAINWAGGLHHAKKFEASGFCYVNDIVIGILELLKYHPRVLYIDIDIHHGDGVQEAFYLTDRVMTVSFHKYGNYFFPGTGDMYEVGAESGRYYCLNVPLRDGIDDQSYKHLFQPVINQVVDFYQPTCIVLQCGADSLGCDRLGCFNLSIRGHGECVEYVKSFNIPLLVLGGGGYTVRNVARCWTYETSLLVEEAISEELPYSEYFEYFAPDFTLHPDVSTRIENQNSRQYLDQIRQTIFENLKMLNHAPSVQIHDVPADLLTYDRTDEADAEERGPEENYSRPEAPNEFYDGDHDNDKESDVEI
T4 sequence (Q9Y618 395-489 partner limits assumed): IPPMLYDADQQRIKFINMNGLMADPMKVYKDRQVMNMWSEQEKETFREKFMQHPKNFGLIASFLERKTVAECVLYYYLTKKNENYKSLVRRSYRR
MMP-3, sequence (P08254 100-477): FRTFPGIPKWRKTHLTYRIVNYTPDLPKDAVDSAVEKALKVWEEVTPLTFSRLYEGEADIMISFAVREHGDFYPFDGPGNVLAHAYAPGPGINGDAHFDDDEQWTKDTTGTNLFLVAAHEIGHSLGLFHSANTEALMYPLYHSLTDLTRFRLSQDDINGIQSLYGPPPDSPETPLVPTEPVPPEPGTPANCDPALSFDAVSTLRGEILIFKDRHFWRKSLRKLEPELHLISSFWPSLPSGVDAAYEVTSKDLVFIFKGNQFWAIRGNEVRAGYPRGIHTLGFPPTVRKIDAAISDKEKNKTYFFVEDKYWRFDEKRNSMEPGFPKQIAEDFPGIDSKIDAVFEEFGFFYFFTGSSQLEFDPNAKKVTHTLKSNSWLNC
T6 sequence (P78536 215-824): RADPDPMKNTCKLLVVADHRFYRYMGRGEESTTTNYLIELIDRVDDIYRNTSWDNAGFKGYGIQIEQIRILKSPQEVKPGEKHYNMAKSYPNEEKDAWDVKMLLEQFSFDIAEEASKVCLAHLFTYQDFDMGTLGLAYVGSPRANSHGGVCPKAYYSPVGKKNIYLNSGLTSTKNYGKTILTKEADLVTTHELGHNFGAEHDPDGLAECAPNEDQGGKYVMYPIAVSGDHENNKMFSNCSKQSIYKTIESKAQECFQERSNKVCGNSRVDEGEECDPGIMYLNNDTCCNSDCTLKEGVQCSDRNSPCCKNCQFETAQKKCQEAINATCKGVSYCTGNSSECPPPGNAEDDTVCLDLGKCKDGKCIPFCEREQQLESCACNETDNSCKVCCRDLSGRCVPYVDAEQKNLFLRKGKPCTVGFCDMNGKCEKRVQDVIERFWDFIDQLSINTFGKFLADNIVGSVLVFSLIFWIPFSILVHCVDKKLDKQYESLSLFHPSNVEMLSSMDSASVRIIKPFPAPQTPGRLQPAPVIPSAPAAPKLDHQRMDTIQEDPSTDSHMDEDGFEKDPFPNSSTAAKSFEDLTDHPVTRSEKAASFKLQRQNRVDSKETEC

For the compound `CC(=O)c1ccc(N2C(=O)CC(S)C2=O)cc1` (stereo not shown) [Compound 25, 1-(4-Acetylphenyl)-3-mercaptopyrrolidine-2,5-dione], the inhibition at 50 µM at MMP-8 (50 µM compound, read-out: MMP-8 % inh @50µM) is below 10%; on MMP-2 (50 µM compound, read-out: MMP-2 % inh @50µM), below 10%; at MMP-14 (50 µM compound, read-out: MMP-14 % inh @50µM), below 10%. Moreover, the inhibition at 100 µM at MMP-8 (read-out: MMP-8 % inhibition @ 100 μM, 100 μM compound) is 94 ± 1%; on MMP-7, below 10%; on MMP-2 (read-out: MMP-2 % inhibition @ 100 μM, 100 μM compound), 14 ± 4%; in data set [4] (read-out: ColH-PD % inhibition @ 100 μM) it was 96 ± 2%; in data set [6] it was 102 ± 3%; at MMP-3 it was below 10%. Further, the inhibition at 100 µM on MMP-14 (read-out: MMP-14 % inhibition @ 100 μM, 100 μM compound) was 84 ± 8%. In addition, the IC50 (as a rule, the concentration that inhibits the measured activity by half) in “in vitro [1]” was above 100 µM; in data set [4], 0.06 ± 0.01 µM; on LasB [5] it was 64 ± 7.5 µM; in “in vitro [7]”, above 100 µM; against HDAC-3, above 100 µM; on HDAC-8, above 100 µM. The concentration for half-maximal inhibition (IC50) at TACE (ADAM-17) is 3.4 ± 1.2 µM; in “in vitro [8]”, above 100 µM. Further, the “times more active on LasB than its methoxy-analogue” value at LasB [2] is 1.7 times. Besides, the MIC (commonly the lowest concentration that inhibits growth of the organism) in data set [3] (Hathewaya histolytica, DSM1126) was above 100 µM; in [3], above 100 µM. In [4] (read-out: ColH-PD % inhibition @ 1 μM), the inhibition at 1 µM worked out at 95%.
